Legend:
[1] = rat, in vivo, po
Description: (§5) Male Sprague-Dawley rats with an average weight of approximately 250 g were purchased from Orient Bio Inc. (Seoul, South Korea) and acclimatized to the laboratory conditions (12:12 h light-dark cycle, temperature of 24°C, and humidity of 55%) for 1 week. Animals were provided the American Institute of Nutrition-93 (AIN-93) diet and water ad libitum during acclimation. On the dosing day, rats were fasted for 6 h and then administered AITC (25 mg/kg of body weight) as a suspension (1 mL) in polyethylene glycol using an oral zonde needle. After a single-dose oral administration of AITC, rats were sacrificed under anesthesia (80 mg/kg ketamine + 8 mg/kg xylazine) at different time points after dosing. Blood samples were collected from the abdominal aorta in heparinized syringes. Samples were immediately centrifuged at 3,000 × g for 10 min and the resulting plasma samples were kept frozen at -80°C until analysis. The liver, heart, spleen, kidney, and lung were rapidly collected from each animal at different time points, individually wrapped in aluminum foil, snap-frozen in liquid nitrogen, and stored frozen at -80°C until use.
(§6) Dissected tissue was thawed, rinsed with ice-cold saline, blotted dry, and weighed. Each tissue sample (100 mg) was homogenized in 100 μL phosphate-buffered saline (PBS) using homogenizer (MP Fastprep instrument, MP Biomedical, Solon, OH, USA). The homogenates were transferred into clean tubes and mixed with 700 μL of methanol by vortexing for 5 min. Homogenates were centrifuged at 15,700 × g for 15 min at 4°C, and the supernatants were collected and evaporated to dryness at room temperature under a stream of nitrogen gas. The residue was diluted with 100 μL 70% methanol.
(§7) HPLC analysis was performed using a Jasco HPLC system equipped with a Jasco UV-2089 plus quaternary gradient pump, a Jasco MD-2010 plus multiple-wave-length detector, and Borwin chromatography software, version 1.5 (Jasco Inc., Easton, MD, USA). Separation was achieved using an XTerra RP18 column (4.6 × 250mm, 5 μM, Waters, Milford, MA, USA). […]

[2] = Tissue distribution of AITC metabolites after oral AITC (HPLC); details: rat liver, kidney, spleen, heart, lung; 0.5-8 h after oral AITC
Description: as §5, §6, §7

mTORC1 = mTORC1 activity (S6K1 and 4EBP1 phosphorylation) during 3T3-L1 adipocyte differentiation, western blot; assay type: cell-based
Description: (§1) 3T3-L1 pre-adipocyte cells were purchased from the ATCC (Manassas, VA, USA). Cells were maintained in DMEM supplemented with 10% calf serum (CS), 100 U/mL penicillin and 100 μg/mL streptomycin at 37°C in a 5% CO2 incubator. The cells were seeded onto a 6-well plate at a density of 4 × 10^5 cells per well, and cell differentiation was induced. In brief, beginning at 2 days post-confluence (day 0), cells were incubated for 2 days in DMEM containing 0.5 mM 3-isobutyl-1-methylxanthine (IBMX), 1 μM dexamethasone, 1 μg/mL of insulin, and 10% fetal bovine serum (FBS). After induction, the medium was replaced with DMEM containing 10% FBS and 1 μg/mL of insulin, and the cells were incubated for 2 more days, after which the cells were maintained in DMEM containing 10% FBS until they reached maturity. From days 0 to 2, the cells were exposed to the AITC metabolites.
(§2) 3T3-L1 adipocytes were scraped into a lysis buffer containing 40 mM HEPES (pH 7.4), 120 mM NaCl, 1 mM EDTA, 50 mM NaF, 1.5 mM Na3VO4, 10 mM β–glycerophosphate, and 1% Triton X-100, supplemented with EDTA-free phosphatase and a protease inhibitor cocktail (#78441; Thermo Scientific, Waltham, MA, USA). Next, the cells were lysed by sonication twice for 15 sec on ice using a sonicator (Misonix, Farmingdale, NY, USA). […]

[3] = Plasma pharmacokinetics of AITC metabolites after oral administration of AITC (HPLC); assay type: in vivo; details: male, Sprague-Dawley, rat plasma, metabolite after oral AITC 25 mg/kg, n = 5; for Cmax: read-out: Cmax (maximum plasma concentration); for half-life: read-out: T1/2 (elimination half-life) (converted); for AUC(0-t): unit printed in text b47 only, read-out: AUC (0-8h)
Description: Methanol (700 μL) was added to 300 μL of serum and the mixture was mixed by vortexing for 5 min. […] The internal standards (synthesized metabolites) were added to the plasma samples for validation.
(§3) Non-compartmental (mode-independent) nutrikinetic parameters were derived using PK Solutions software version 2.0 (Summit Research Services, Montrose, CO, USA). The maximum plasma concentration (Cmax), time to maximum plasma concentration (Tmax), and the elimination half-life (t1/2) were estimated from the plasma concentration-time curve. The area under the curve (AUC) for the plasma concentration over time was calculated using the trapezoidal rule.
A validated analytical method was employed to study the pharmacokinetic profiles of AITC metabolites after oral administration of 25 mg/kg AITC dose to rats. The mean plasma concentration-time curves of the AITC metabolites and the corresponding pharmacokinetic parameters are shown in Fig 2B and 2C . The pharmacokinetic analysis was performed with PK solution 2.0 software, using a non-compartmental model for data analysis. After oral administration of AITC, GSH-AITC and NAC-AITC were detected in the plasma. The Tmax values for GSH-AITC and NAC-AITC were similar at 0.5h. […] The areas under the curve of the concentration-time profile (AUC0-8h) of GSH-AITC and NAC-AITC were 1.3 and 12.33 μg·h/mL, respectively.

Hepa 1–6 cells = assay: Oleic acid-induced lipid accumulation in hepatocytes, Oil Red O; assay type: cell-based, mouse; details: hepatocytes (Hepa 1–6), 100 μM oleic acid, 24h
Description: HepG2 (human hepatoma cell line) and Hepa 1–6 (mouse hepatoma cell line) cells were obtained from ATCC (Manassas, VA, USA) and grown in high glucose DMEM supplemented with 10% FBS, 100 U/mL penicillin, and 100 μg/mL streptomycin. For examination of lipid accumulation in hepatocytes, the cells were treated with AITC metabolites in presence of 100 μM oleic acid for 24h.
(§4) Oil Red O staining was performed on day 8. Prior to quantification, the cells were fixed in 10% neutral formalin for 1 h at room temperature, washed with PBS, and stained for 1 h with 0.5% Oil Red O in 60% isopropanol. After staining, the cells were washed with distilled water and observed under a fluorescence microscope. […] The optical density was measured at a wavelength of 490 nm using microplate reader (Tecan Infinite 200 PRO, Männedorf, Switzerland).
Fig 6 Inhibitory effects of GSH-AITC and NAC-AITC on oleic acid-induced lipid accumulation. […] The intracellular triglyceride levels were indexed by quantifying the Oil Red O extracted from the cells by spectroscopy performed at an […] of 490 nm (B). The SCD1, FAS, and AMPK levels in cell lysates were detected by western blot analysis. To compare and quantify levels of proteins, the density of each band was measured using ImageJ software with β–actin as an internal reference (C). […]

[4] = Urine concentration and pharmacokinetics of AITC metabolites after oral AITC (HPLC); assay type: in vivo; details: rat urine; for Detection in urine samples: HPLC
Description: as §3
In addition to our evaluations of plasma levels, we also determined the concentration of AITC metabolites in urine using HPLC. […] NAC-AITC was mostly excreted within 8 h (Fig 3C).

3T3-L1 preadipocytes = assay: MDI-induced adipocyte differentiation of 3T3-L1 preadipocytes, Oil Red O staining; assay type: cell-based; details: treated days 0 to 2, stained after 8 days
Description: as §1, §4

PPAR-γ, C/EBPα, and FAS = assay: Western blotting of adipogenesis proteins in 3T3-L1 cells; assay type: cell-based
Description: as §1, §2

[5] = set-up: method as in PMID 3961819; details: cellular medium; cited from earlier work
[6] = male, Sprague-Dawley, 25 mg/kg, n = 5

In the case of `C=CCN=C=S` [AITC, Allyl-isothiocyanate], the “Detection of parent molecule in plasma and tissues” value [1] is reported as “not detected”.

With `C=CCNC(=S)SC[C@H](NC(C)=O)C(=O)O` [NAC-AITC, N-acetyl-S-(N-allylthiocarbamoyl)- l-cysteine] the “Tissue deposition (by tissue weight)” value [2] was “observed in the kidney”, the “S6K1 phosphorylation on Thr389” value (mTORC1) was “reduced” and the Tmax [3] was 0.5 h. For the same compound, the Cmax [3] was 14000 ng/mL, the half-life [3] was 2.65 h and the AUC(0-t) [3] was 12300 ng·h/mL. For the same compound, the “Oleic acid-induced lipid accumulation” value (Hepa 1–6 cells) was “suppressed”, the Cmax [4, 6] was 2260 ng/mL and the Tmax [4, 6] was 2.66 h. For the same compound, the AUC(0-t) ([4]; male, Sprague-Dawley, 25 mg/kg, n = 5, read-out: AUC (0-8h) in urine) was 8110 ng·h/mL, the half-life ([4]; male, Sprague-Dawley, 25 mg/kg, n = 5, read-out: T1/2 in urine (converted)) was 1.44 h and the “Time within which mostly excreted in urine” value [4] was no more than 8 h. For the same compound, the “Detection in urine samples” value [4] was “successfully quantified”, the “Differentiation of 3T3-L1 preadipocytes (Oil Red O)” value (3T3-L1 preadipocytes) was “inhibited differentiation of preadipocytes” and the “Levels of PPAR-γ, C/EBPα, and FAS” value (PPAR-γ, C/EBPα, and FAS) was “reduced”.

For `C=CCNC(=S)SC[C@H](NC(=O)CC[C@H](N)C(=O)O)C(=O)NCC(=O)O` [GSH-AITC, S-(N-allylthiocarbamoyl)-L-glutathione], the “Fraction converted to free AITC” value [5] is given as 9–15%, the “Tissue deposition (by tissue weight)” value [2] is given as “observed in the liver, followed by the kidney, spleen, heart, and lung” and the “S6K1 phosphorylation on Thr389” value (mTORC1) is given as “reduced”. The Tmax [3] was 0.5 h, the Cmax [3] was 1470 ng/mL and the half-life [3] was 0.92 h. For the same compound, the AUC(0-t) [3] was 1300 ng·h/mL, the “Oleic acid-induced lipid accumulation” value (Hepa 1–6 cells) was “suppressed” and the “Detection in urine samples” value [4] was “not detected”. The “Differentiation of 3T3-L1 preadipocytes (Oil Red O)” value (3T3-L1 preadipocytes) was “inhibited differentiation of preadipocytes” and the “Levels of PPAR-γ, C/EBPα, and FAS” value (PPAR-γ, C/EBPα, and FAS) was “reduced”.
